Laboratory results taken from patent US6495675B1, “Pharmaceutical composition for treating or preventing influenza, and novel capped oligonucleotide” (Chiba Institute of Technology, priority 1997, dated 2002).
Where two headings read alike, the source gives them in different places. Strand notation (5' to 3'): a small letter for the sugar, then the base; units joined by * are phosphorothioate-linked, units joined directly phosphodiester-linked; [ ] holds rarer units or linkages, { } end groups; capitals alone tell only the bases. {m7GpppGm} = cap: 7-methylguanosine 5'-5' triphosphate-linked to 2'-O-methylguanosine; {m7GpppG} = cap: 7-methylguanosine 5'-5' triphosphate-linked to guanosine; r = 2'-OH (RNA)

Test system: CAT protein expression in 76 cells expressing RNA polymerases (PB1, PB2, and PA) and NP protein of influenza A virus (A/PR/8/34)
Format: cell-based

| Substance | inhibition of CAT protein expression (in words) (concentration not specified) | inhibition of CAT protein expression (in words) (high dose (0.3 μM)) |
| --- | --- | --- |
| m^7GpppGmAAUACUC ({m7GpppGm}-rArArUrArCrUrC) [Gm8] | significant inhibition |  |
| m^7GpppG AAUACUC ({m7GpppG}-rArArUrArCrUrC) [G8] | significant inhibition |  |
| m^7GpppGmAAUACUCAAACU ({m7GpppGm}-rArArUrArCrUrCrArArArCrU) [Gm13, reference compound] | weak inhibition | little inhibition |
